What was measured:
Details in all cases: 72 h
Caco-2 [1] = assay: cell viability relative to DMSO; higher = less toxic
Calu-3 [2] = assay: as above
HepG2 [3] = assay: as above
U2OS [4] = assay: as above
Caco-2 [5] = assay: relative viability EC50 (midpoint between 100% and the lowest measured viability); higher = less toxic
Calu-3 [6] = assay: as above
HepG2 [7] = assay: as above
U2OS [8] = assay: as above
Caco-2 [9] = assay: drug sensitivity score (DSS) for viability; higher = more toxic; extreme values may be limits of the assay
Calu-3 [10] = assay: as above
HepG2 [11] = assay: as above
U2OS [12] = assay: as above
Vero E6 [13] = assay: cell viability relative to DMSO; higher = less toxic
Vero E6 [14] = assay: drug sensitivity score (DSS) for viability; higher = more toxic; extreme values may be limits of the assay

| SMILES | cell viability (Caco-2 [1]; 1 nM) | cell viability (Caco-2 [1]; 10 nM) | cell viability (Caco-2 [1]; 100 nM) | cell viability (Caco-2 [1]; 1000 nM) | cell viability (Caco-2 [1]; 10000 nM) | cell viability (Calu-3 [2]; 1 nM) | cell viability (Calu-3 [2]; 10 nM) | cell viability (Calu-3 [2]; 100 nM) | cell viability (Calu-3 [2]; 1000 nM) | cell viability (Calu-3 [2]; 10000 nM) | cell viability (HepG2 [3]; 1 nM) | cell viability (HepG2 [3]; 10 nM) | cell viability (HepG2 [3]; 100 nM) | cell viability (HepG2 [3]; 1000 nM) | cell viability (HepG2 [3]; 10000 nM) | cell viability (U2OS [4]; 1 nM) | cell viability (U2OS [4]; 10 nM) | cell viability (U2OS [4]; 100 nM) | cell viability (U2OS [4]; 1000 nM) | cell viability (U2OS [4]; 10000 nM) | relative viability EC50 (Caco-2 [5]) | relative viability EC50 (Calu-3 [6]) | relative viability EC50 (HepG2 [7]) | relative viability EC50 (U2OS [8]) | drug sensitivity score (Caco-2 [9]) | drug sensitivity score (Calu-3 [10]) | drug sensitivity score (HepG2 [11]) | drug sensitivity score (U2OS [12]) | cell viability (Vero E6 [13]; 1 nM) | cell viability (Vero E6 [13]; 10 nM) | cell viability (Vero E6 [13]; 100 nM) | cell viability (Vero E6 [13]; 1000 nM) | cell viability (Vero E6 [13]; 10000 nM) | drug sensitivity score (Vero E6 [14]) |
| --- | --- | --- | --- | --- | --- | --- | --- | --- | --- | --- | --- | --- | --- | --- | --- | --- | --- | --- | --- | --- | --- | --- | --- | --- | --- | --- | --- | --- | --- | --- | --- | --- | --- | --- |
| CCCOc1ccc2c(c1)CC[C@@H]1[C@@H]2CC[C@]2(C)[C@@H](OC)CC[C@@H]12 [promestriene] | 97.9% | 97.4% | 97.7% | 90.4% | 98.5% | 99% | 90.9% | 97.5% | 92.3% | 104% | 102% | 107% | 103% | 93% | 97.9% | 93.5% | 105% | 96.2% | 96.5% | 99.9% | > 10 µM | > 10 µM | > 10000 nM | > 10 µM | 0 | 0 | 0 | 0 |  |  |  |  |  |  |
| CN(C)CCN1C(=O)c2cccc3cc(N)cc(c23)C1=O [amonafide] | 99.9% | 96.1% | 97.9% | 108% | 69.7% | 94.8% | 96.2% | 99.3% | 104% | 65.1% | 92.9% | 108% | 113% | 93.6% | 23.9% | 101% | 92.7% | 95% | 100% | 64.6% |  |  | 2480 nM |  | 1 | 1.4 | 5.2 | 1.7 | 97.8% | 93.3% | 95.9% | 94.1% | 54.8% | 3.3 |
| NS(=O)(=O)c1ccc(NC(=O)Nc2ccc(F)cc2)cc1 [U-104] | 99.4% | 94.4% | 96.9% | 105% | 101% | 112% | 91.7% | 107% | 101% | 108% | 102% | 106% | 103% | 89.8% | 104% |  |  |  |  |  | > 10 µM | > 10 µM | > 10000 nM |  | 0 | 0 | 0 |  |  |  |  |  |  |  |
| OCc1ccccc1O[C@@H]1O[C@H](CO)[C@@H](O)[C@H](O)[C@H]1O [salicin] |  |  |  |  |  |  |  |  |  |  |  |  |  |  |  |  |  |  |  |  |  |  |  |  |  | 0 | 0 | 0 |  |  |  |  |  | 0 |
| O=C(CCCl)NCc1ccccc1 [beclamide] |  |  |  |  |  |  |  |  |  |  |  |  |  |  |  |  |  |  |  |  |  |  |  |  |  | 0 | 0 | 0 |  |  |  |  |  | 0 |
| CN(CC(=O)O)C(=N)N [creatine] |  |  |  |  |  |  |  |  |  |  |  |  |  |  |  |  |  |  |  |  |  |  |  |  |  | 0 | 0 | 0 |  |  |  |  |  |  |
| Cc1cc(N2CCOCC2)ccc1Nc1nc(NC2CCCCC2)c2nc[nH]c2n1 | 102% | 104% | 101% | 88.5% | 69.4% | 100% | 98% | 98.6% | 98.4% | 85% | 99.1% | 107% | 98% | 51.8% | 43.5% | 97% | 104% | 101% | 68% | 55.4% |  | > 10 µM | 455 nM |  | 2.9 | 0.4 | 9.1 | 6.1 | 96.9% | 99.6% | 98.2% | 60.1% | 60.8% | 7.4 |
| Cc1cccc(NC(=O)CN2CCC(c3ccccn3)CC2)c1 | 98.7% | 101% | 95% | 91.3% | 93.9% | 110% | 101% | 109% | 108% | 98.1% | 108% | 103% | 97% | 102% | 101% | 98.9% | 97.9% | 94.7% | 98.1% | 93.9% | > 10 µM | > 10 µM | > 10000 nM | > 10 µM | 0 | 0 | 0 | 0 |  |  |  |  |  |  |

Reference: the supplement of paper PMC13380429
